Measurements: patent US9028797B2, “Composite body for antigen or drug delivery” (priority 2010, dated 2015)

Assays:
[1] = tested on: dendritic cell line, DC2.4 cell; assay: Cellular uptake of fluorescently labeled BSA, fluorescence microscopy (Example 3); assay type: cell-based; details: incubated 2 hr, imaged 22 hr later
Description: As a model protein, bovine serum albumin (BSA) was fluorescently labeled with rhodamine B isothiocyanate and used. A BSA/BAC/γ-PGA complex prepared using benzalkonium chloride (BAC) and γ-PGA with BSA or BSA was added to a dendritic cell line, DC2.4 cell, and the mixture was incubated for 2 hr. The cells were washed and fluorescence images of the cell were measured by a fluorescence microscope 22 hr later.

[2] = tested on: OVA-expressing cancer cell (EG7); assay: Tumor growth of intradermally transplanted OVA-expressing cancer cell after immunization (Example 14); assay type: in vivo, mice; details: EG7 intradermally transplanted 2 weeks after final immunization
Description: OVA/BK/γ-PGA complex was constructed using ovalbumin (OVA), benzalkonium chloride (BK) and γ-PGA. To the mice were administered OVA alone, benzalkonium chloride and γ-PGA (vector alone), and OVA/BK/γ-PGA complex every other week, 4 times in total. After 2 weeks from the final immunization, OVA-expressing cancer cell (EG7) was intradermally transplanted, and the tumor growth after transplantation was observed.

OVA = assay: Antibody titer to OVA by ELISA in serum of immunized mice (Example 13); assay type: in vivo; details: mouse serum 2 weeks after final immunization; every other week, 4 times
Description: OVA/BK/γ-PGA complex was constructed using ovalbumin (OVA), benzalkonium chloride (BK) and γ-PGA. OVA alone, benzalkonium chloride and γ-PGA (vector alone), and OVA/BK/γ-PGA complex were administered to mice every other week, 4 times in total for immunization. After 2 weeks from the final immunization, the serum was collected, and the antibody titer to OVA was measured by ELISA. For the measurement of the antibody titer, an HRP-labeled goat-derived anti-mouse IgG antibody was used as the secondary antibody.

Substance | cellular uptake by dendritic cell (fluorescence of BSA) [1] | tumor growth suppressive effect [2] | antibody titer to OVA (immunity induction effect) (OVA)
bovine serum albumin [BSA] | not observed |  | 
ovalbumin [ovalbumin antigen alone] |  | did not show a tumor growth suppressive effect | did not show an immunity induction effect
